Tested on: Plasmodium falciparum
Experiment: In vitro anti-malarial activity against Plasmodium falciparum, IC50 assay / [3H]-Hypoxanthine incorporation assay
Assay type: cell-based
Conditions: Erythrocyte; Plasmodium falciparum strains in parasitized red blood cells, [3H]-hypoxanthine incorporation, 48 hours at 37°C
Method: The compounds of this invention may be tested in one of several biological assays to determine the concentration of compound which is required to have a given pharmacological effect. In vitro anti-malarial activity against Plasmodium falciparum. IC50 assay / [^3H]-Hypoxanthine assay
The culture medium comprised RPMI 1640 with 25mM HEPES, sodium bicarbonate and glutamine (GIBCO™ cat. ref.: 52400), supplemented with 10% of pooled human sera AB (Irvine Scientific, cat. ref.: 5009) and HT supplement (0.15 mM hypoxanthine and 24 µM thymidine), (GIBCO™ cat. ref.: 41065). Human sera were decomplemented 30 min. at 56°C, aliquoted and stored frozen at -20°C until use in this culture medium.
This culture medium ("complete medium") was usually prepared fresh just before use and pre-warmed to 37°C.
Red blood cells O+ stock suspensions were prepared from whole blood bags coming from incomplete blood donation, provided by the Spanish Red Cross (<25 days after sampling). This "whole blood" was aliquoted and stored at 4°C.
To prepare red blood cells for the assay, the whole blood was centrifuged and washed 3 times with RPMI without serum. The upper phase, containing white blood cells was removed. The washed red blood cells were kept as a 50 % suspension in complete medium. The prepared cells were stored at 4°C and were employed in the assay at any time up to 4 days after preparation.
Test compounds were dissolved at 2 mg/ml in 100% DMSO on the day of the assay. If necessary, complete dissolution was achieved by gentle heating (the mixture was heated at a temperature <37°C) and sonication (sonication bath).
For IC50 determinations, 10 serial 2-fold dilutions were prepared in complete medium in the presence of a constant amount of DMSO. Any obvious signs of insolubility of the stock solutions in 100% DMSO or precipitation when these solutions were diluted in assay media, were recorded.
Plasmodium falciparum strains were maintained in complete medium at an hematocrit of 5% in continuous culture using a method adapted from that published by Trager and Jensen(1) and Traeger(2).
The parasitemia was calculated by counting the percentage of parasitized erythrocytes by optical microscopy. Thin films of blood were made every day from each culture flask, fixed with methanol and stained for 10 min. in Giemsa (Merck, cat. ref.: 1.09204) at 10 % in buffered water pH 7.2. The glass slides were observed and counted with an optical microscope (Nikon, Eclipse E200) equipped with a 100 X immersion oil objective.
The culture was maintained at an hematocrit of 5%, with a daily change of medium and was diluted when parasitemia had reached about 5%.
[^3H] Hypoxanthine incorporation assay was conducted using a method adapted from Desjardins et al. (3). The assays were performed in 96 wells flat bottom microplates. • 1. Serial dilutions of the test compounds (50µl of a 5X solution / well) were deposited in duplicate. Compounds of the invention were tested in this assay. Chloroquine and Atovaquone were used as control compounds for each assay. • 2. […] [^3H]-Hypoxanthine (Amersham Biosciences, cat. ref.: TRK74) was added extemporaneously to the inoculum suspension at a concentration of 1 µCi/ml (equating to […]). 200 µl of the resulting suspension was distributed into each well (other than the control well H12 described below) leading to a final volume of 250 µl per well, at 2% of hematocrit and 0.5 % of parasitemia / well. • 4. […]

IC50, < 0.125 µg/mL:
Cc1[nH]c(C)c(-c2ccc(C#CCN(C)Cc3ccc(OC(F)(F)F)cc3)cc2)c(=O)c1Cl [Example 1, 3-Chloro-2,6-dimethyl-5-(4-{3-[methyl({4-[(trifluoromethyl)oxy]phenyl}methyl)amino]-1-propyn-1-yl}phenyl)-4(1H)-pyridinone]
Cc1[nH]c(C)c(-c2ccc(C#CCN(C)Cc3ccc(C(F)(F)F)cc3)cc2)c(=O)c1Cl [Example 2, 3-Chloro-2,6-dimethyl-5-{4-[3-(methyl{[4-(trifluoromethyl)phenyl]methyl}amino)-1-propyn-1-yl]phenyl}-4(1H)-pyridinone]
Cc1[nH]c(C)c(-c2ccc(C#CCN(C)Cc3ccccc3C(F)(F)F)cc2)c(=O)c1Cl [Example 3, 3-Chloro-2,6-dimethyl-5-{4-[3-(methyl{[2-(trifluoromethyl)phenyl]methyl}amino)-1-propyn-1-yl]phenyl}-4(1H)-pyridinone]
Cc1[nH]c(C)c(-c2ccc(C#CCN(C)Cc3ccc(C(F)(F)F)cc3C(F)(F)F)cc2)c(=O)c1Cl [Example 4, 3-(4-{3-[{[2,4-Bis(trifluoromethyl)phenyl]methyl}(methyl)amino]-1-propyn-1-yl}phenyl)-5-chloro-2,6-dimethyl-4(1H)-pyridinone]
CCCN(CC#Cc1ccc(-c2c(C)[nH]c(C)c(Cl)c2=O)cc1)Cc1ccc(OC(F)(F)F)cc1.O=C(O)C(F)(F)F [Example 6, 3-Chloro-2,6-dimethyl-5-(4-{3-[propyl({4-[(trifluoromethyl)oxy]phenyl}methyl)amino]-1-propyn-1-yl}phenyl)-4(1H)-pyridinone trifluoroacetate]
Cc1[nH]c(C)c(-c2ccc(C#CCNCc3ccc(OC(F)(F)F)cc3)cc2)c(=O)c1Cl [Example 8, 3-Chloro-2,6-dimethyl-5-(4-{3-[({4-[(trifluoromethyl)oxy]phenyl}methyl)amino]-1-propyn-1-yl}phenyl)-4(1H)-pyridinone]
COCCN(CC#Cc1ccc(-c2c(C)[nH]c(C)c(Cl)c2=O)cc1)Cc1ccc(OC(F)(F)F)cc1 [Example 9, 3-Chloro-2,6-dimethyl-5-(4-{3-[[2-(methyloxy)ethyl]({4-[(trifluoromethyl)oxy]phenyl}-methyl)amino]-1-propyn-1-yl}phenyl)-4(1H)-pyridinone]
Cc1[nH]c(C)c(-c2ccc(C#CCN3CCC(c4ccccc4)CC3)cc2)c(=O)c1Cl [Example 10, 3-Chloro-2,6-dimethyl-5-{4-[3-(4-phenyl-1-piperidinyl)-1-propyn-1-yl]phenyl}-4(1H)-pyridinone]
Cc1[nH]c(C)c(-c2ccc(C#CCN3CCC(c4ccc(OC(F)(F)F)cc4)CC3)cc2)c(=O)c1Cl.Cl [Example 11, 3-Chloro-2,6-dimethyl-5-{4-[3-(4-{4-[(trifluoromethyl)oxy]phenyl}-1-piperidinyl)-1-propyn-1-yl]phenyl}-4(1H)-pyridinone hydrochloride]
Cc1[nH]c(C)c(-c2ccc(C#CCN(Cc3ccccc3)Cc3ccccc3)cc2)c(=O)c1Cl.Cl [Example 12, 3-(4-{3-[Bis(phenylmethyl)amino]-1-propyn-1-yl}phenyl)-5-chloro-2,6-dimethyl-4(1H)-pyridinone hydrochloride]
Cc1[nH]c(C)c(-c2ccc(C#CCN3CCCCC3c3ccccc3)cc2)c(=O)c1Cl.Cl (stereo not drawn) [Example 13, 3-Chloro-2,6-dimethyl-5-{4-[3-(2-phenyl-1-piperidinyl)-1-propyn-1-yl]phenyl}-4(1H)-pyridinone hydrochloride]
Cc1[nH]c(C)c(-c2ccc(C#CCN3CCc4cc(C(F)(F)F)ccc4C3)cc2)c(=O)c1Cl.Cl [Example 14, 3-Chloro-2,6-dimethyl-5-(4-(3-[6-(trifluoromethyl)-3,4-dihydro-2(1H)-isoquinolinyl]-1-propyn-1-yl}phenyl)-4(1H)-pyridinone hydrochloride]
Cc1[nH]c(C)c(-c2ccc(C#CCN3CCc4cccc(C(F)(F)F)c4C3)cc2)c(=O)c1Cl.Cl [Example 15, 3-Chloro-2,6-dimethyl-5-(4-{3-[8-(trifluoromethyl)-3,4-dihydro-2(1H)-isoquinolinyl]-1-propyn-1-yl}phenyl)-4(1H)-pyridinone hydrochloride]
Cc1[nH]c(C)c(-c2ccc(C#CCN(C)CCc3ccc(OC(F)(F)F)cc3)cc2)c(=O)c1Cl.Cl [Example 17, 3-Chloro-2,6-dimethyl-5-(4-{3-[methyl(2-{4-[(trifluoromethyl)oxy]phenyl}ethyl)amino]-1-propyn-1-yl}phenyl)-4(1H)-pyridinone hydrochloride]
Cc1[nH]c(C)c(-c2ccc(C#CCCN(C)Cc3ccc(OC(F)(F)F)cc3)cc2)c(=O)c1Cl.Cl [Example 18, 3-Chloro-2,6-dimethyl-5-(4-{4-[methyl({4-[(trifluoromethyl)oxy]phenyl}methyl)amino]-1-butyn-1-yl}phenyl)-4(1H)-pyridinone hydrochloride]
Cc1[nH]c(C)c(-c2ccc(C#CCN(C)Cc3ccc(OC(F)(F)F)cc3)cc2)c(=O)c1Cl.Cl [Example 19, 3-Chloro-2,6-dimethyl-5-(4-{3-[methyl({4-[(trifluoromethyl)oxy]phenyl}methyl)amino]-1-propyn-1-yl}phenyl)-4(1H)-pyridinone hydrochloride]
CCCN(CC#Cc1ccc(-c2c(C)[nH]c(C)c(Cl)c2=O)cc1)Cc1ccc(OC(F)(F)F)cc1 [Example 20, 3-Chloro-2,6-dimethyl-5-(4-{3-[propyl({4-[(trifluoromethyl)oxy]phenyl}methyl)amino]-1-propyn-1-yl}phenyl)-4(1H)-pyridinone]
CCCN(CC#Cc1ccc(-c2c(C)[nH]c(C)c(Cl)c2=O)cc1)Cc1ccc(OC(F)(F)F)cc1.Cl [Example 21, 3-Chloro-2,6-dimethyl-5-(4-{3-[propyl({4-[(trifluoromethyl)oxy]phenyl}methyl)amino]-1-propyn-1-yl}phenyl)-4(1H)-pyridinone hydrochloride]
Cc1[nH]c(C)c(-c2ccc(C#CCN3CCC(c4ccc(OC(F)(F)F)cc4)CC3)cc2)c(=O)c1Cl.O=C(O)C(F)(F)F [Example 22, 3-Chloro-2,6-dimethyl-5-{4-[3-(4-{4-[(trifluoromethyl)oxy]phenyl}-1-piperidinyl)-1-propyn-1-yl]phenyl}-4(1H)-pyridinone trifluoroacetate]
Cc1[nH]c(C)c(-c2ccc(CN(C)Cc3ccc(OC(F)(F)F)cc3)cc2)c(=O)c1Cl.Cl [Example 23, 3-Chloro-2,6-dimethyl-5-(4-{[methyl({4-[(trifluoromethyl)oxy]phenyl}methyl)amino]-methyl}phenyl)-4(1H)-pyridinone hydrochloride]
Cc1[nH]c(C)c(-c2ccc(CN3CCC(c4ccc(OC(F)(F)F)cc4)CC3)cc2)c(=O)c1Cl.Cl [Example 24, 3-Chloro-2,6-dimethyl-5-{4-[(4-{4-[(trifluoromethyl)oxy]phenyl}-1-piperidinyl)methyl]-phenyl}-4(1H)-pyridinone hydrochloride]
Cc1[nH]c(C)c(-c2cccc(CN(C)Cc3ccc(OC(F)(F)F)cc3)c2)c(=O)c1Cl.Cl [Example 25, 3-Chloro-2,6-dimethyl-5-(3-{[methyl({4-[(trifluoromethyl)oxy]phenyl}methyl)amino]-methyl}phenyl)-4(1H)-pyridinone hydrochloride]
Cc1[nH]c(C)c(-c2ccc(-c3ccc(CN(C)Cc4ccc(OC(F)(F)F)cc4)s3)cc2)c(=O)c1Cl.O=C(O)C(F)(F)F [Example 26, 3-Chloro-2,6-dimethyl-5-[4-(5-{[methyl({4-[(trifluoromethyl)oxy]phenyl}methyl)amino]-methyl}-2-thienyl)phenyl] -4(1H)-pyridinone trifluoroacetate]
Cc1[nH]c(C)c(-c2cccc(C#CCN3CCC(c4ccc(OC(F)(F)F)cc4)CC3)c2)c(=O)c1Cl.O=C(O)C(F)(F)F [Example 30, 3-Chloro-2,6-dimethyl-5-{3-[3-(4-{4-[(trifluoromethyl)oxy]phenyl}-1-piperidinyl)-1-propyn-1-yl]phenyl}-4(1H)-pyridinone trifluoroacetate]

From patent EP2246329A1, “4(1H)-pyridinone derivatives and their use as antimalaria agents” (Glaxo Group Limited, priority 2009, dated 2010)
